According to PubChem BioAssay AID328 (DTP/NCI, 2004):
“And” between values parts separate entries of the source, which are not always exact repeats. Equal entries are not always repeated. Inconclusive results and toxic doses are left out.

Tested on: BDF1 mice, P388 leukemia ip, median survival T/C
Assay: NCI In Vivo Anticancer Drug Screen. Data for tumor model P388 Leukemia (intraperitoneal) in B6D2F1 (BDF1) mice
Conditions: endpoint: median survival time, higher = longer survival
Procedure, shortened: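 In tumour-bearing mice, survival after compound treatment is set against the vehicle group and given as a quotient.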

[1] = dose: 200.0 mg/kg/injection, schedule: Q04DX003 (ip), vehicle: saline with Tween-80
[2] = dose: 300.0 mg/kg/injection, schedule: Q04DX003 (ip), vehicle: Klucel (hydroxypropylcellulose) (HPC)
[3] = dose: 50.0 mg/kg/injection, schedule: Q01DX009 (ip), vehicle: saline with Tween-80
[4] = dose: 100.0 mg/kg/injection, schedule: Q01DX009 (ip), vehicle: saline with Tween-80
[5] = dose: 200.0 mg/kg/injection, schedule: Q01DX009 (ip), vehicle: saline with Tween-80

CCCC1CC[N-]CC1.CCCC1CC[N-]CC1.[Cl][Pt+2][Cl]
T/C (dose: 25.0 mg/kg/injection, schedule: Q01DX009 (ip), vehicle: saline with Tween-80): 122 % of control
T/C (dose: 44.0 mg/kg/injection, schedule: Q04DX003 (ip), vehicle: saline): 96 % of control
T/C (dose: 50.0 mg/kg/injection, schedule: Q01DX009 (ip), vehicle: Klucel (hydroxypropylcellulose) (HPC)): 118 % of control
T/C (dose: 66.0 mg/kg/injection, schedule: Q04DX003 (ip), vehicle: saline): 116 % of control
T/C (dose: 100.0 mg/kg/injection, schedule: Q04DX003 (ip), vehicle: saline): 112 % of control
T/C (dose: 132.0 mg/kg/injection, schedule: Q04DX003 (ip), vehicle: saline with Tween-80): 100 % of control
T/C [1]: 95 % of control
T/C [2]: 100 % of control

CN(C)CCC(=O)C(=Cc1ccc(Cl)c(Cl)c1)C(=O)CCN(C)C
T/C (dose: 50.0 mg/kg/injection, schedule: Q01DX005 (ip), vehicle: saline): 109 % of control
T/C (dose: 100.0 mg/kg/injection, schedule: Q01DX005 (ip), vehicle: saline): 114 % of control

OC(Cc1cccnc1)(c1ccccc1)c1ccc(Cl)cc1 (centres undefined)
T/C [3]: 105 % of control
T/C [4]: 100 % of control
T/C [5]: 96 % of control

CC1CCCCC12OCCO2 (centres undefined)
T/C [3]: 100 % of control
T/C [4]: 113 % of control
T/C (dose: 100.0 mg/kg/injection, schedule: Q04DX003 (ip), vehicle: saline with Tween-80): 100 % of control
T/C [5]: 104 % of control
T/C [1]: 109 % of control
T/C (dose: 400.0 mg/kg/injection, schedule: Q04DX003 (ip), vehicle: saline with Tween-80): 100 % of control

COc1cccc2c1C(=O)c1c(O)c3c(c(O)c1C2=O)C[C@@](O)(/C(C)=N/NC(=O)c1ccc(Cl)cc1)C[C@@H]3OC1CC(N)C(O)C(C)O1 (some centres undefined)
T/C (dose: 0.5 mg/kg/injection, schedule: Q01DX009 (ip), vehicle: water): 110 % of control
T/C (dose: 1.0 mg/kg/injection, schedule: Q01DX009 (ip), vehicle: water): 107 % of control and 214 % of control
T/C (dose: 2.0 mg/kg/injection, schedule: Q01DX009 (ip), vehicle: water): 303 % of control
T/C (dose: 4.0 mg/kg/injection, schedule: Q01DX009 (ip), vehicle: water): 238 % of control and 115 % of control
T/C (dose: 8.0 mg/kg/injection, schedule: Q01DX009 (ip), vehicle: water): 164 % of control

COc1cc(O)c2c(c1)C(=O)c1cc3c(c(O)c1C2=O)C(OC1OC(C)C(O)C(O)C1OC)C(OC)C(C)(O)C3=O (centres undefined)
T/C (dose: 25.9 mg/kg/injection, schedule: Q01DX009 (ip), vehicle: Klucel (hydroxypropylcellulose) (HPC)): 116 % of control
T/C (dose: 37.5 mg/kg/injection, schedule: Q01DX010 (ip), vehicle: carboxymethylcellulose (CMC)): 150 % of control
T/C (dose: 37.5 mg/kg/injection, schedule: Q01DX010 (ip), vehicle: saline): 111 % of control and 115 % of control
T/C (dose: 43.2 mg/kg/injection, schedule: Q01DX009 (ip), vehicle: Klucel (hydroxypropylcellulose) (HPC)): 121 % of control
T/C (dose: 75.0 mg/kg/injection, schedule: Q01DX010 (ip), vehicle: carboxymethylcellulose (CMC)): 165 % of control
T/C (dose: 75.0 mg/kg/injection, schedule: Q01DX010 (ip), vehicle: saline): 120 % of control and 122 % of control
T/C (dose: 108.0 mg/kg/injection, schedule: Q04DX003 (ip), vehicle: Klucel (hydroxypropylcellulose) (HPC)): 114 % of control
T/C (dose: 120.0 mg/kg/injection, schedule: Q01DX009 (ip), vehicle: Klucel (hydroxypropylcellulose) (HPC)): 106 % of control
T/C (dose: 180.0 mg/kg/injection, schedule: Q04DX003 (ip), vehicle: Klucel (hydroxypropylcellulose) (HPC)): 110 % of control
T/C [2]: 99 % of control
T/C (dose: 500.0 mg/kg/injection, schedule: Q04DX003 (ip), vehicle: Klucel (hydroxypropylcellulose) (HPC)): 97 % of control

CCCC1CC[N-]CC1.CCCC1CC[N-]CC1.[Cl][Pt+2]([Cl])([Cl])[Cl]
T/C (dose: 25.0 mg/kg/injection, schedule: Q04DX003 (ip), vehicle: saline): 122 % of control
T/C (dose: 33.0 mg/kg/injection, schedule: Q04DX003 (ip), vehicle: saline with Tween-80): 150 % of control
T/C (dose: 37.5 mg/kg/injection, schedule: Q04DX003 (ip), vehicle: saline with Tween-80): 118 % of control
T/C [3]: 110 % of control
T/C (dose: 50.0 mg/kg/injection, schedule: Q04DX003 (ip), vehicle: saline with Tween-80): 160 % of control

CC(=O)Oc1cc2c[n+](C)c3c4cc(OC(C)=O)c(OC(C)=O)cc4ccc3c2cc1OC(C)=O
T/C (dose: 20.0 mg/kg/injection, schedule: Q01DX009 (ip), vehicle: saline): 95 % of control
T/C (dose: 40.0 mg/kg/injection, schedule: Q01DX009 (ip), vehicle: saline): 104 % of control
T/C (dose: 80.0 mg/kg/injection, schedule: Q01DX009 (ip), vehicle: saline): 109 % of control
T/C (dose: 120.0 mg/kg/injection, schedule: Q01DX009 (ip), vehicle: saline): 118 % of control
